Values after ≈ are worked out from the molar mass of the structure shown. Bridge positions count the residues as written; N and C are the ends. Square brackets hold non-standard residues; d marks the D form. Peptide text beside a SMILES is read from it. * marks the point of attachment. Heptanoyl(6-Me) = CC(C)CCCCC(=O)*; X1 = CC[C@H](C)CCCCC(=O)*; dDap = NC[C@@H](N)C(=O)O; Dab = NCC[C@H](N)C(=O)O
Tests used:
[1] = Renal cytotoxicity against HK-2 cells incubated for 72 hrs by CCK8 assay; format: toxicity, cell-based; details: human
[2] = Nephrotoxicity against Sprague-Dawley rat assessed as increase in BUN level at 4 mg/kg, iv administered for 7 days by fully automated biochemistry analyzer XR200PLUS; format: toxicity, organism-based; details: in vivo, 168 h, time 7 day
[3] = Acute toxicity in iv dosed Swiss mouse assessed as maximum tolerated dose measured after 24 hrs; format: organism-based; details: in vivo
[4] = Nephrotoxicity against Sprague-Dawley rat assessed as increase in CRE level at 4 mg/kg, iv administered for 7 days by fully automated biochemistry analyzer XR200PLUS; format: toxicity, organism-based; details: in vivo, 168 h, time 7 day
[5] = Protein binding in human plasma assessed as unbound fraction at 0.2 uM incubated for 6 hrs by LC-MS/MS analysis; format: ADME, cell-free
Pseudomonas aeruginosa [6] = test: Antibacterial activity against carbapenem-resistant Pseudomonas aeruginosa clinical isolate ets49 assessed as inhibition of bacterial growth incubated for 24 hrs by CLSI protocol based broth microdilution method; format: functional
Acinetobacter baumannii [7] = test: Antibacterial activity against carbapenem-resistant Acinetobacter baumannii clinical isolate ets104 assessed as inhibition of bacterial growth incubated for 24 hrs by CLSI protocol based broth microdilution method; format: functional
Pseudomonas aeruginosa [8] = test: Antibacterial activity against carbapenem-resistant Pseudomonas aeruginosa clinical isolate ets84 assessed as inhibition of bacterial growth incubated for 24 hrs by CLSI protocol based broth microdilution method; format: functional
Pseudomonas aeruginosa [9] = test: Antibacterial activity against carbapenem-resistant Pseudomonas aeruginosa clinical isolate ets83 assessed as inhibition of bacterial growth incubated for 24 hrs by CLSI protocol based broth microdilution method; format: functional
Escherichia coli [10] = test: Antibacterial activity against carbapenem-resistant Escherichia coli clinical isolate 231016w014 assessed as inhibition of bacterial growth incubated for 24 hrs by CLSI protocol based broth microdilution method; format: functional
Klebsiella pneumoniae [11] = test: Antibacterial activity against carbapenem-resistant Klebsiella pneumoniae clinical isolate ets26 assessed as inhibition of bacterial growth incubated for 24 hrs by CLSI protocol based broth microdilution method; format: functional
Klebsiella pneumoniae [12] = test: Antibacterial activity against carbapenem-resistant Klebsiella pneumoniae clinical isolate ets40 assessed as inhibition of bacterial growth incubated for 24 hrs by CLSI protocol based broth microdilution method; format: functional
Escherichia coli [13] = test: Antibacterial activity against carbapenem-resistant Escherichia coli ATCC BAA-2340 assessed as inhibition of bacterial growth incubated for 16 to 20 hrs by CLSI protocol based broth microdilution method; format: functional; details: time 16-20 hrs
Pseudomonas aeruginosa [14] = test: Antibacterial activity against carbapenem-resistant Pseudomonas aeruginosa clinical isolate ets55 assessed as inhibition of bacterial growth incubated for 24 hrs by CLSI protocol based broth microdilution method; format: functional
Escherichia coli [15] = test: Antibacterial activity against carbapenem-resistant Escherichia coli clinical isolate 231109W005 assessed as inhibition of bacterial growth incubated for 24 hrs by CLSI protocol based broth microdilution method; format: functional
Acinetobacter baumannii [16] = test: Antibacterial activity against carbapenem-resistant Acinetobacter baumannii clinical isolate ets171 assessed as inhibition of bacterial growth incubated for 24 hrs by CLSI protocol based broth microdilution method; format: functional
Pseudomonas aeruginosa [17] = test: Antibacterial activity against carbapenem-resistant Pseudomonas aeruginosa clinical isolate ets5 assessed as inhibition of bacterial growth incubated for 24 hrs by CLSI protocol based broth microdilution method; format: functional
Pseudomonas aeruginosa [18] = test: Antibacterial activity against carbapenem-resistant Pseudomonas aeruginosa clinical isolate 19-3 assessed as inhibition of bacterial growth incubated for 16 to 20 hrs by CLSI protocol based broth microdilution method; format: functional; details: time 16-20 hrs
Escherichia coli [19] = test: Antibacterial activity against Escherichia coli ATCC BAA-2523 assessed as inhibition of bacterial growth incubated for 16 to 20 hrs by CLSI protocol based broth microdilution method; format: functional; details: time 16-20 hrs
Pseudomonas aeruginosa [20] = test: Antibacterial activity against carbapenem-resistant Pseudomonas aeruginosa clinical isolate ets15 assessed as inhibition of bacterial growth incubated for 24 hrs by CLSI protocol based broth microdilution method; format: functional
Pseudomonas aeruginosa [21] = test: Antibacterial activity against carbapenem-resistant Pseudomonas aeruginosa clinical isolate ets38 assessed as inhibition of bacterial growth incubated for 24 hrs by CLSI protocol based broth microdilution method; format: functional
Klebsiella pneumoniae [22] = test: Antibacterial activity against carbapenem-resistant Klebsiella pneumoniae clinical isolate ets80 assessed as inhibition of bacterial growth incubated for 24 hrs by CLSI protocol based broth microdilution method; format: functional
Klebsiella pneumoniae [23] = test: Antibacterial activity against carbapenem-resistant Klebsiella pneumoniae clinical isolate ets78 assessed as inhibition of bacterial growth incubated for 24 hrs by CLSI protocol based broth microdilution method; format: functional
Acinetobacter baumannii [24] = test: Antibacterial activity against carbapenem-resistant Acinetobacter baumannii clinical isolate ets123 assessed as inhibition of bacterial growth incubated for 24 hrs by CLSI protocol based broth microdilution method; format: functional
Klebsiella pneumoniae [25] = test: Antibacterial activity against carbapenem-resistant Klebsiella pneumoniae clinical isolate ets45 assessed as inhibition of bacterial growth incubated for 24 hrs by CLSI protocol based broth microdilution method; format: functional
Acinetobacter baumannii [26] = test: Antibacterial activity against Acinetobacter baumannii NCTC 13304 (OXA-27) assessed as inhibition of bacterial growth incubated for 16 to 20 hrs by CLSI protocol based broth microdilution method; format: functional; details: time 16-20 hrs
Pseudomonas aeruginosa [27] = test: Antibacterial activity against carbapenem-resistant Pseudomonas aeruginosa clinical isolate ets33 assessed as inhibition of bacterial growth incubated for 24 hrs by CLSI protocol based broth microdilution method; format: functional
Escherichia coli [28] = test: Antibacterial activity against carbapenem-resistant Escherichia coli clinical isolate 231112E006B assessed as inhibition of bacterial growth incubated for 24 hrs by CLSI protocol based broth microdilution method; format: functional
Pseudomonas aeruginosa [29] = test: Antibacterial activity against Pseudomonas aeruginosa ATCC 27853 assessed as inhibition of bacterial growth incubated for 16 to 20 hrs by CLSI protocol based broth microdilution method; format: functional; details: time 16-20 hrs
Acinetobacter baumannii [30] = test: Antibacterial activity against carbapenem-sensitive Acinetobacter baumannii clinical isolate 19-1 assessed as inhibition of bacterial growth incubated for 16 to 20 hrs by CLSI protocol based broth microdilution method; format: functional; details: time 16-20 hrs
Pseudomonas aeruginosa [31] = test: Antibacterial activity against carbapenem-resistant Pseudomonas aeruginosa clinical isolate ets6 assessed as inhibition of bacterial growth incubated for 24 hrs by CLSI protocol based broth microdilution method; format: functional
Klebsiella pneumoniae [32] = test: Antibacterial activity against carbapenem-resistant Klebsiella pneumoniae ATCC BAA-1705 assessed as inhibition of bacterial growth incubated for 16 to 20 hrs by CLSI protocol based broth microdilution method; format: functional; details: time 16-20 hrs
Klebsiella pneumoniae [33] = test: Antibacterial activity against carbapenem-resistant Klebsiella pneumoniae clinical isolate KPN+19-15 assessed as inhibition of bacterial growth incubated for 16 to 20 hrs by CLSI protocol based broth microdilution method; format: functional; details: time 16-20 hrs
Pseudomonas aeruginosa [34] = test: Antibacterial activity against carbapenem-resistant Pseudomonas aeruginosa clinical isolate ets85 assessed as inhibition of bacterial growth incubated for 24 hrs by CLSI protocol based broth microdilution method; format: functional
Klebsiella pneumoniae [35] = test: Antibacterial activity against carbapenem-resistant Klebsiella pneumoniae clinical isolate ets75 assessed as inhibition of bacterial growth incubated for 24 hrs by CLSI protocol based broth microdilution method; format: functional
Klebsiella pneumoniae [36] = test: Antibacterial activity against carbapenem-resistant Klebsiella pneumoniae clinical isolate ets74 assessed as inhibition of bacterial growth incubated for 24 hrs by CLSI protocol based broth microdilution method; format: functional
Klebsiella pneumoniae [37] = test: Antibacterial activity against carbapenem-resistant Klebsiella pneumoniae clinical isolate ets77 assessed as inhibition of bacterial growth incubated for 24 hrs by CLSI protocol based broth microdilution method; format: functional
Pseudomonas aeruginosa [38] = test: Antibacterial activity against carbapenem-resistant Pseudomonas aeruginosa clinical isolate ets104 assessed as inhibition of bacterial growth incubated for 24 hrs by CLSI protocol based broth microdilution method; format: functional
Acinetobacter baumannii [39] = test: Antibacterial activity against carbapenem-resistant Acinetobacter baumannii clinical isolate ets30 assessed as inhibition of bacterial growth incubated for 24 hrs by CLSI protocol based broth microdilution method; format: functional
Acinetobacter baumannii [40] = test: Antibacterial activity against carbapenem-resistant Acinetobacter baumannii clinical isolate ets178 assessed as inhibition of bacterial growth incubated for 24 hrs by CLSI protocol based broth microdilution method; format: functional
Pseudomonas aeruginosa [41] = test: Antibacterial activity against carbapenem-resistant Pseudomonas aeruginosa clinical isolate ets22 assessed as inhibition of bacterial growth incubated for 24 hrs by CLSI protocol based broth microdilution method; format: functional

## CC(C)CCCCC(=O)N[C@@H](CCN)C(=O)N[C@H](C(=O)N[C@@H](CCN)C(=O)N[C@H]1CCNC(=O)[C@H]([C@@H](C)O)NC(=O)[C@H](CCN)NC(=O)[C@H](CCN)NC(=O)[C@H](CC(C)C)NC(=O)[C@@H](Cc2ccccc2)NC(=O)[C@H](CCN)NC1=O)[C@@H](C)O.CC[C@H](C)CCCCC(=O)N[C@@H](CCN)C(=O)N[C@H](C(=O)N[C@@H](CCN)C(=O)N[C@H]1CCNC(=O)[C@H]([C@@H](C)O)NC(=O)[C@H](CCN)NC(=O)[C@H](CCN)NC(=O)[C@H](CC(C)C)NC(=O)[C@@H](Cc2ccccc2)NC(=O)[C@H](CCN)NC1=O)[C@@H](C)O (X1-[Dab]T[Dab][Dab][Dab][dF]L[Dab][Dab]T; lactam 4-C)
[1]
  IC50 at 72 h: 66.3 µg/mL
[2]
  Activity: Toxic
[3]
  MTD at 24 h: 5.4 mg/kg
[4]
  Activity: Toxic

## CC(C)CCCCC(=O)N[C@@H](CCN)C(=O)N[C@H](C(=O)N[C@@H](CCN)C(=O)N[C@H]1CCNC(=O)[C@H]([C@@H](C)O)NC(=O)[C@H](CCN)NC(=O)[C@H](CCN)NC(=O)[C@H](CC(C)C)NC(=O)[C@@H](Cc2ccccc2)NC(=O)[C@H](CCN)NC1=O)[C@@H](C)O ({Heptanoyl(6-Me)}-[Dab]T[Dab][Dab][Dab][dF]L[Dab][Dab]T; lactam 4-C)
[5]
  fraction unbound at 6 h, 0.2 µM: 0.099

## CC(C)CCCCC(=O)N[C@@H](CCN)C(=O)N[C@H](C(=O)N[C@H](CN)C(=O)N[C@H]1CCNC(=O)[C@H]([C@@H](C)O)NC(=O)[C@H](CCN)NC(=O)[C@H](CCN)NC(=O)[C@H]([C@@H](C)O)NC(=O)[C@@H](Cc2ccccc2)NC(=O)[C@H](CCN)NC1=O)[C@@H](C)O ({Heptanoyl(6-Me)}-[Dab]T[dDap][Dab][Dab][dF]T[Dab][Dab]T; lactam 4-C)
Pseudomonas aeruginosa [6]
  MIC: < 0.06 µg/mL
Acinetobacter baumannii [7]
  MIC: 0.06 µg/mL (≈ 0.0516 µM)
Pseudomonas aeruginosa [8]
  MIC: 2 µg/mL (≈ 1.72 µM)
Pseudomonas aeruginosa [9]
  MIC: 0.5 µg/mL (≈ 0.43 µM)
Escherichia coli [10]
  MIC: < 0.06 µg/mL
Klebsiella pneumoniae [11]
  MIC: 0.5 µg/mL (≈ 0.43 µM)
Klebsiella pneumoniae [12]
  MIC: 0.125 µg/mL (≈ 0.107 µM)
Escherichia coli [13]
  MIC: ≤ 0.03 µg/mL
Pseudomonas aeruginosa [14]
  MIC: 1 µg/mL (≈ 0.86 µM)
Escherichia coli [15]
  MIC: < 0.06 µg/mL
Acinetobacter baumannii [16]
  MIC: 0.5 µg/mL (≈ 0.43 µM)
Pseudomonas aeruginosa [17]
  MIC: 1 µg/mL (≈ 0.86 µM)
Pseudomonas aeruginosa [18]
  MIC: 0.125 µg/mL (≈ 0.107 µM)
Escherichia coli [19]
  MIC: ≤ 0.03 µg/mL
Pseudomonas aeruginosa [20]
  MIC: 1 µg/mL (≈ 0.86 µM)
Pseudomonas aeruginosa [21]
  MIC: 0.5 µg/mL (≈ 0.43 µM)
Klebsiella pneumoniae [22]
  MIC: 0.5 µg/mL (≈ 0.43 µM)
Klebsiella pneumoniae [23]
  MIC: 0.25 µg/mL (≈ 0.215 µM)
Acinetobacter baumannii [24]
  MIC: 2 µg/mL (≈ 1.72 µM)
Klebsiella pneumoniae [25]
  MIC: 0.25 µg/mL (≈ 0.215 µM)
Acinetobacter baumannii [26]
  MIC: ≤ 0.03 µg/mL
Pseudomonas aeruginosa [27]
  MIC: 4 µg/mL (≈ 3.44 µM)
Escherichia coli [28]
  MIC: < 0.06 µg/mL
[1]
  IC50 at 72 h: > 500 µg/mL
Pseudomonas aeruginosa [29]
  MIC: ≤ 0.03 µg/mL
Acinetobacter baumannii [30]
  MIC: ≤ 0.03 µg/mL
Pseudomonas aeruginosa [31]
  MIC: 0.5 µg/mL (≈ 0.43 µM)
Klebsiella pneumoniae [32]
  MIC: ≤ 0.03 µg/mL
Klebsiella pneumoniae [33]
  MIC: ≤ 0.03 µg/mL
Pseudomonas aeruginosa [34]
  MIC: 0.5 µg/mL (≈ 0.43 µM)
Klebsiella pneumoniae [35]
  MIC: 0.5 µg/mL (≈ 0.43 µM)
Klebsiella pneumoniae [36]
  MIC: 0.5 µg/mL (≈ 0.43 µM)
Klebsiella pneumoniae [37]
  MIC: 0.5 µg/mL (≈ 0.43 µM)
Pseudomonas aeruginosa [38]
  MIC: 1 µg/mL (≈ 0.86 µM)
Acinetobacter baumannii [39]
  MIC: 2 µg/mL (≈ 1.72 µM)
Acinetobacter baumannii [40]
  MIC: 1 µg/mL (≈ 0.86 µM)
Pseudomonas aeruginosa [41]
  MIC: 2 µg/mL (≈ 1.72 µM)
